Assay results taken from ChEMBL document CHEMBL3885861, “Open TG-GATES”.

Species on record: Rattus norvegicus
Experiment: Open TG-GATES - Regimen: Daily Repeat
Assay type: toxicity, organism-based, Sprague-Dawley
Design: regimen Daily Repeat, gender Male, age 6 weeks
Conditions: in vivo, po, 20 mg/kg, route gavage, dose level Low; for APTT / Bas / Eos / Fbg / Hb / Ht / Lym / MCH / MCHC / MCV / Mono / Neu / PT / Plat / RBC / Ret / WBC: tissue Blood; for KIDNEY_L / KIDNEY_R / KIDNEY_TOTAL: tissue Kidney; for LIVER: tissue Liver; for A/G / ALP / ALT / AST / BUN / CRE / Ca / Cl / DBIL / GLC / IP / K / LDH / Na / PL / RALB / TBIL / TC / TG / TP / gamma-GTP: tissue Plasma

Work on `CCc1oc2ccccc2c1C(=O)c1cc(Br)c(O)c(Br)c1` [BENZBROMARONE] yielded a TERMINAL_BW (72 h, time 3 day) of 239.2 g, an APTT (72 h, time 3 day) of 16.2 s and a Bas (72 h, time 3 day) of 0%. The Eos (72 h, time 3 day) was 1%, the Fbg (72 h, time 3 day) was 233.6 mg/dL and the Hb (72 h, time 3 day) was 13.8 g/dL. The Ht (72 h, time 3 day) was 41%, the Lym (72 h, time 3 day) was 78.8% and the MCH (72 h, time 3 day) was 22.4 pg. The MCHC (72 h, time 3 day) was 33.7%, the MCV (72 h, time 3 day) was 66.3 fL and the Mono (72 h, time 3 day) was 7%. The Neu (72 h, time 3 day) was 13.2%, the PT (72 h, time 3 day) was 11.8 s and the Plat (72 h, time 3 day) was 112.4 x10_4/uL. It also gave an RBC (72 h, time 3 day) of 619.6 x10_4/ul, a Ret (72 h, time 3 day) of 7.4% and a WBC (72 h, time 3 day) of 116.5 x10_2/uL. It also gave a KIDNEY_L (72 h, time 3 day) of 1.1 g, a KIDNEY_R (72 h, time 3 day) of 1.1 g and a KIDNEY_TOTAL (72 h, time 3 day) of 2.2 g. For the same molecule, the LIVER (72 h, time 3 day) was 12.8 g, the A/G (72 h, time 3 day) was 2.1 and the ALP (72 h, time 3 day) was 818.8 IU/L. For the same molecule, the ALT (72 h, time 3 day) was 31.2 IU/L, the AST (72 h, time 3 day) was 59.8 IU/L and the BUN (72 h, time 3 day) was 18.6 mg/dL. For the same molecule, the CRE (72 h, time 3 day) was 0.6 mg/dL, the Ca (72 h, time 3 day) was 10.4 mg/dL and the Cl (72 h, time 3 day) was 105 meq/L. For the same molecule, the DBIL (72 h, time 3 day) was 0.008 mg/dL, the GLC (72 h, time 3 day) was 189.2 mg/dL and the IP (72 h, time 3 day) was 7.7 mg/dL. It also gave a K (72 h, time 3 day) of 4.9 meq/L, an LDH (72 h, time 3 day) of 90.2 IU/L and a Na (72 h, time 3 day) of 139.5 meq/L. It also gave a PL (72 h, time 3 day) of 158.8 mg/dL, an RALB (72 h, time 3 day) of 4 g/dL and a TBIL (72 h, time 3 day) of 0.3 mg/dL. It also gave a TC (72 h, time 3 day) of 84.2 mg/dL, a TG (72 h, time 3 day) of 114.2 mg/dL and a TP (72 h, time 3 day) of 6 g/dL. The gamma-GTP (72 h, time 3 day) was 0.8 IU/L, the TERMINAL_BW ([…], time 7 day) was 269 g and the TERMINAL_BW ([…], time 14 day) was 309.9 g. It also gave a TERMINAL_BW ([…], time 28 day) of 378.9 g, an APTT ([…], time 7 day) of 16.8 s and a Bas ([…], time 7 day) of 0%. For the same molecule, the Eos ([…], time 7 day) was 1%, the Fbg ([…], time 7 day) was 244.4 mg/dL and the Hb ([…], time 7 day) was 14.2 g/dL. The Ht ([…], time 7 day) was 42%, the Lym ([…], time 7 day) was 79.8% and the MCH ([…], time 7 day) was 21.2 pg. It also gave an MCHC ([…], time 7 day) of 33.9%, an MCV ([…], time 7 day) of 62.6 fL and a Mono ([…], time 7 day) of 5.8%. It also gave a Neu ([…], time 7 day) of 13.4%, a PT ([…], time 7 day) of 11.9 s and a Plat ([…], time 7 day) of 113.1 x10_4/uL. It also gave an RBC ([…], time 7 day) of 670.8 x10_4/ul, a Ret ([…], time 7 day) of 5.9% and a WBC ([…], time 7 day) of 102 x10_2/uL. For the same molecule, the APTT ([…], time 14 day) was 16.5 s, the Bas ([…], time 14 day) was 0% and the Eos ([…], time 14 day) was 1%. The Fbg ([…], time 14 day) was 228.8 mg/dL, the Hb ([…], time 14 day) was 14.4 g/dL and the Ht ([…], time 14 day) was 43.4%. The Lym ([…], time 14 day) was 81.4%, the MCH ([…], time 14 day) was 20.8 pg and the MCHC ([…], time 14 day) was 33.3%. For the same molecule, the MCV ([…], time 14 day) was 62.5 fL, the Mono ([…], time 14 day) was 6.2% and the Neu ([…], time 14 day) was 11.2%. The PT ([…], time 14 day) was 11.7 s, the Plat ([…], time 14 day) was 104.8 x10_4/uL and the RBC ([…], time 14 day) was 694.6 x10_4/ul. It also gave a Ret ([…], time 14 day) of 4.4%, a WBC ([…], time 14 day) of 128.4 x10_2/uL and an APTT ([…], time 28 day) of 16.9 s. For the same molecule, the Bas ([…], time 28 day) was 0%, the Eos ([…], time 28 day) was 1.4% and the Fbg ([…], time 28 day) was 223.4 mg/dL. It also gave a Hb ([…], time 28 day) of 15.4 g/dL, a Ht ([…], time 28 day) of 45.8% and a Lym ([…], time 28 day) of 85.4%. For the same molecule, the MCH ([…], time 28 day) was 19.3 pg, the MCHC ([…], time 28 day) was 33.6% and the MCV ([…], time 28 day) was 57.6 fL. It also gave a Mono ([…], time 28 day) of 4.6%, a Neu ([…], time 28 day) of 8.6% and a PT ([…], time 28 day) of 12.1 s. It also gave a Plat ([…], time 28 day) of 101.2 x10_4/uL, an RBC ([…], time 28 day) of 795.8 x10_4/ul and a Ret ([…], time 28 day) of 2.8%. For the same molecule, the WBC ([…], time 28 day) was 139.2 x10_2/uL, the KIDNEY_L ([…], time 7 day) was 1.2 g and the KIDNEY_R ([…], time 7 day) was 1.2 g. It also gave a KIDNEY_TOTAL ([…], time 7 day) of 2.4 g, a KIDNEY_L ([…], time 14 day) of 1.2 g and a KIDNEY_R ([…], time 14 day) of 1.3 g. For the same molecule, the KIDNEY_TOTAL ([…], time 14 day) was 2.5 g, the KIDNEY_L ([…], time 28 day) was 1.5 g and the KIDNEY_R ([…], time 28 day) was 1.5 g. For the same molecule, the KIDNEY_TOTAL ([…], time 28 day) was 2.9 g, the LIVER ([…], time 7 day) was 14.3 g and the LIVER ([…], time 14 day) was 15.3 g. The LIVER ([…], time 28 day) was 17.3 g, the A/G ([…], time 7 day) was 1.9 and the ALP ([…], time 7 day) was 819.4 IU/L. The ALT ([…], time 7 day) was 34.6 IU/L, the AST ([…], time 7 day) was 61.8 IU/L and the BUN ([…], time 7 day) was 20 mg/dL. The CRE ([…], time 7 day) was 0.6 mg/dL, the Ca ([…], time 7 day) was 10.4 mg/dL and the Cl ([…], time 7 day) was 107.9 meq/L. It also gave a DBIL ([…], time 7 day) of 0.008 mg/dL, a GLC ([…], time 7 day) of 187.8 mg/dL and an IP ([…], time 7 day) of 7.9 mg/dL. For the same molecule, the K ([…], time 7 day) was 4.9 meq/L, the LDH ([…], time 7 day) was 92 IU/L and the Na ([…], time 7 day) was 138.5 meq/L. For the same molecule, the PL ([…], time 7 day) was 163.8 mg/dL, the RALB ([…], time 7 day) was 4 g/dL and the TBIL ([…], time 7 day) was 0.3 mg/dL. The TC ([…], time 7 day) was 82 mg/dL, the TG ([…], time 7 day) was 139.6 mg/dL and the TP ([…], time 7 day) was 6.2 g/dL. The gamma-GTP ([…], time 7 day) was 1 IU/L, the A/G ([…], time 14 day) was 1.8 and the ALP ([…], time 14 day) was 708.6 IU/L. The ALT ([…], time 14 day) was 29.4 IU/L, the AST ([…], time 14 day) was 57.2 IU/L and the BUN ([…], time 14 day) was 19.6 mg/dL. It also gave a CRE ([…], time 14 day) of 0.6 mg/dL, a Ca ([…], time 14 day) of 10.4 mg/dL and a Cl ([…], time 14 day) of 107.5 meq/L. For the same molecule, the DBIL ([…], time 14 day) was 0.002 mg/dL, the GLC ([…], time 14 day) was 191.8 mg/dL and the IP ([…], time 14 day) was 7.2 mg/dL. The K ([…], time 14 day) was 4.8 meq/L, the LDH ([…], time 14 day) was 88 IU/L and the Na ([…], time 14 day) was 140.3 meq/L. It also gave a PL ([…], time 14 day) of 168.2 mg/dL, an RALB ([…], time 14 day) of 4.1 g/dL and a TBIL ([…], time 14 day) of 0.3 mg/dL. The TC ([…], time 14 day) was 86 mg/dL, the TG ([…], time 14 day) was 139.4 mg/dL and the TP ([…], time 14 day) was 6.3 g/dL. The gamma-GTP ([…], time 14 day) was 2 IU/L, the A/G ([…], time 28 day) was 2 and the ALP ([…], time 28 day) was 589.8 IU/L. It also gave an ALT ([…], time 28 day) of 30.6 IU/L, an AST ([…], time 28 day) of 57.4 IU/L and a BUN ([…], time 28 day) of 20.6 mg/dL. For the same molecule, the CRE ([…], time 28 day) was 0.5 mg/dL, the Ca ([…], time 28 day) was 9.9 mg/dL and the Cl ([…], time 28 day) was 107.3 meq/L. The DBIL ([…], time 28 day) was 0.008 mg/dL, the GLC ([…], time 28 day) was 192 mg/dL and the IP ([…], time 28 day) was 6.6 mg/dL. It also gave a K ([…], time 28 day) of 4.4 meq/L, an LDH ([…], time 28 day) of 92.2 IU/L and a Na ([…], time 28 day) of 140.6 meq/L. It also gave a PL ([…], time 28 day) of 154.4 mg/dL, an RALB ([…], time 28 day) of 4.2 g/dL and a TBIL ([…], time 28 day) of 0.3 mg/dL. It also gave a TC ([…], time 28 day) of 75.6 mg/dL, a TG ([…], time 28 day) of 140 mg/dL and a TP ([…], time 28 day) of 6.4 g/dL. The gamma-GTP ([…], time 28 day) was 1.8 IU/L.
